# Measurements: patent US8933074B2, “1,2-disubstituted heterocyclic compounds” (FORUM Pharmaceuticals Inc., priority 2008, dated 2015)
# Molecular target: Human PDE10A1 (Homo sapiens, UniProt Q9Y233)
# Experiment: hPDE10A1 enzyme inhibition
# Type: biochemical
# Conditions: [3H]-cAMP substrate, 20 minutes at 37° C.; read-out: hPDE10A1 IC50 Band
# Method: 50 μl samples of serially diluted Human PDE10A1 enzyme were incubated with 50 μl of [^3H]-cAMP for 20 minutes (at 37° C.). Reactions were carried out in Greiner 96 deep well 1 ml master-block. The enzyme was diluted in 20 mM Tris HCl pH7.4 and [^3H]-cAMP was diluted in 10 mM MgCl2, 40 mM Tris.HCl pH 7.4. The reaction was terminated by denaturing the PDE enzyme (at 70° C.) after which [^3H]-5′-AMP was converted to [^3H]-adenosine by adding 25 μl snake venom nucleotidase and incubating for 10 minutes (at 37° C.). Adenosine, being neutral, was separated from charged cAMP or AMP by the addition of 200 μl Dowex resin. Samples were shaken for 20 minutes then centrifuged for 3 minutes at 2,500 r.p.m. 50 μl of supernatant was removed and added to 200 μl of MicroScint-20 in white plates (Greiner 96-well Optiplate) and shaken for 30 minutes before reading on Perkin Elmer TopCount Scintillation Counter.
# To check inhibition profile 11 μl of serially diluted inhibitor was added to 50 μl of [^3H]-cAMP and 50 ul of diluted Human PDE10A1 and assay was carried out as in the enzyme activity assay. Data was analysed using Prism software (GraphPad Inc).
# Human PDE10A1, sequence (Q9Y233 1-779 isoform Q9Y233-1): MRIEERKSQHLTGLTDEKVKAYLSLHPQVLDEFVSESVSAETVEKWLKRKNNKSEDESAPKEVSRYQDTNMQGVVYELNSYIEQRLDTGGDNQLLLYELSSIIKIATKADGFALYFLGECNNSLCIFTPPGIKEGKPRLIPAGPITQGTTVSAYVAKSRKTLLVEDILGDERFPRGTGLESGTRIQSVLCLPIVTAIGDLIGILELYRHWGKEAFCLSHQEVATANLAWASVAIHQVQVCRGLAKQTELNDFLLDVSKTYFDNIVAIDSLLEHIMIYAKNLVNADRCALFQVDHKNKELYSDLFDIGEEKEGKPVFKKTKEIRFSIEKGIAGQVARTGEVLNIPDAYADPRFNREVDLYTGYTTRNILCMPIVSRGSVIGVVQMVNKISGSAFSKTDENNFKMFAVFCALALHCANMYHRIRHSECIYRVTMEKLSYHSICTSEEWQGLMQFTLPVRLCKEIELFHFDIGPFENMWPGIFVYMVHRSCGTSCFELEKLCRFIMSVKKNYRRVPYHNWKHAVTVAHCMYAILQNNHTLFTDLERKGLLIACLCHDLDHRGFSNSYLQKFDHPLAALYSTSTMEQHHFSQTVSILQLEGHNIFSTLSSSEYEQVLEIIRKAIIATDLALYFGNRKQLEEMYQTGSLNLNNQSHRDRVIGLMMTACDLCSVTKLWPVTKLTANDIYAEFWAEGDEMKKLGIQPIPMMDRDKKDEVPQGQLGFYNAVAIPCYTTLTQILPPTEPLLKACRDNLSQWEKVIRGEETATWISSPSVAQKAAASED
row,SMILES,IC50 [nM]
1,"CN1C(=O)C(c2ccncc2)=C(c2ccc(OCc3ccc4ccccc4n3)cc2)C1=O [Example 11, 1-methyl-3-(pyridin-4-yl)-4-(4-(quinolin-2-ylmethoxy)phenyl)-1H-pyrrole-2,5-dione]",> 50
2,"CC1(C)OC(=O)C(c2ccc(OCc3ccc4ccccc4n3)cc2)=C1c1ccncc1 [Example 23, 5,5-dimethyl-4-(pyridin-4-yl)-3-(4-(quinolin-2-ylmethoxy)phenyl)furan-2(5H)-one]",≤ 50
3,"O=C1OC2(CC2)C(c2ccncc2)=C1c1ccc(OCc2ccc3ccccc3n2)cc1 [Example 26, 7-(Pyridin-4-yl)-6-(4-(quinolin-2-ylmethoxy)phenyl)-4-oxaspiro[2.4]hept-6-en-5-one]",> 50
4,"COc1ccc(C2=C(c3ccc(OCc4ccc5ccccc5n4)cc3)C(=O)OC2(C)C)cc1 [Example 33, 4-(4-methoxyphenyl)-5,5-dimethyl-3-(4-(quinolin-2-ylmethoxy)phenyl)furan-2(5H)-one]",≤ 50
5,"CC1(C)NC(=O)C(c2ccc(OCc3ccc4ccccc4n3)cc2)=C1c1ccncc1 [Example 63, 5,5-dimethyl-4-(pyridin-4-yl)-3-(4-(quinolin-2-ylmethoxy)phenyl)-1H-pyrrol-2(5H)-one]",≤ 50
6,"COc1ccc(C2=C(c3ccc(OCc4ccc5ccccc5n4)cc3)C(=O)N(C)C2(C)C)cc1 [Example 73, 4-(4-methoxyphenyl)-1,5,5-trimethyl-3-(4-(quinolin-2-ylmethoxy)phenyl)-1H-pyrrol-2(5H)-one]",> 50
7,"CC1(C)OC(c2ccncc2)=C(c2ccc(OCc3ccc4ccccc4n3)cc2)C1=O [Example 125, 2,2-dimethyl-5-(pyridin-4-yl)-4-(4-(quinolin-2-ylmethoxy)phenyl) furan-3(2H)-one]",≤ 50
8,"COc1ccc(C2=C(c3ccc(OCc4ccc5ccccc5n4)cc3)C(=O)OC23CC3)cc1 [Example 126, 7-(4-methoxyphenyl)-6-(4-(quinolin-2-ylmethoxy)phenyl)-4-oxaspiro[2.4]hept-6-en-5-one]",≤ 50
9,"CC1(C)OC(c2ccncn2)=C(c2ccc(OCc3ccc4ccccc4n3)cc2)C1=O [Example 127, 2,2-dimethyl-5-(pyrimidin-4-yl)-4-(4-(quinolin-2-ylmethoxy)phenyl)furan-3(2H)-one]",> 50
10,"CC1(C)OC(c2ccnc(O)c2)=C(c2ccc(OCc3ccc4ccccc4n3)cc2)C1=O [Example 130, 5-(2-hydroxypyridin-4-yl)-2,2-dimethyl-4-(4-(quinolin-2-ylmethoxy)phenyl)furan-3(2H)-one]",≤ 50
11,"COc1cc(C2=C(c3ccc(OCc4ccc5ccccc5n4)cc3)C(=O)C(C)(C)O2)ccn1 [Example 131, 5-(2-methoxypyridin-4-yl)-2,2-dimethyl-4-(4-(quinolin-2-ylmethoxy)phenyl)furan-3(2H)-one]",≤ 50
12,"CC1(C)OC(c2ccc(O)nc2)=C(c2ccc(OCc3ccc4ccccc4n3)cc2)C1=O [Example 132, 5-(6-hydroxypyridin-3-yl)-2,2-dimethyl-4-(4-(quinolin-2-ylmethoxy)phenyl)furan-3(2H)-one]",≤ 50
13,"COc1ccc(C2=C(c3ccc(OCc4ccc5ccccc5n4)cc3)C(=O)C(C)(C)O2)cn1 [Example 133, 5-(6-methoxypyridin-3-yl)-2,2-dimethyl-4-(4-(quinolin-2-ylmethoxy)phenyl)furan-3(2H)-one]",≤ 50
14,"COc1ccc(C2=C(c3ccc(OCc4ccc5ccccc5n4)cc3)C(=O)C(C)(C)O2)cc1F [Example 134, 5-(3-fluoro-4-methoxyphenyl)-2,2-dimethyl-4-(4-(quinolin-2-ylmethoxy)phenyl)furan-3(2H)-one]",≤ 50
15,"COc1ccc(C2=C(c3ccc(OCc4ccc5ccccc5n4)cc3)C(=O)C(C)(C)O2)cc1Cl [Example 135, 5-(3-Chloro-4-methoxyphenyl)-2,2-dimethyl-4-(4-(quinolin-2-ylmethoxy)phenyl) furan-3(2H)-one]",≤ 50
16,"COc1ccc(C2=C(c3ccc(OCc4ccc5ccccc5n4)cc3)C(=O)C(C)(C)O2)cc1C#N [Example 137, 5-(5,5-Dimethyl-4-oxo-3-(4-(quinolin-2-ylmethoxy)phenyl)-4,5-dihydrofuran-2-yl)-2-methoxybenzonitrile]",≤ 50
17,"COc1ccc(C2=C(c3ccc(OCc4ccc5ccccc5n4)cc3)C(=O)C(C)(C)O2)cc1 [Example 138, 5-(4-Methoxyphenyl)-2,2-dimethyl-4-(4-(quinolin-2-ylmethoxy)phenyl) furan-3(2H)-one]",≤ 50
18,"CC1(C)OC(c2ccc(C#N)cc2)=C(c2ccc(OCc3ccc4ccccc4n3)cc2)C1=O [Example 141, 4-(5,5-Dimethyl-4-oxo-3-(4-(quinolin-2-ylmethoxy)phenyl)-4,5-dihydrofuran-2-yl)benzonitrile]",≤ 50

row,SMILES,IC50 [nM]
1,"CC1(C)OC(c2ccc(Cl)cc2)=C(c2ccc(OCc3ccc4ccccc4n3)cc2)C1=O [Example 147, 5-(4-Chlorophenyl)-2,2-dimethyl-4-(4-(quinolin-2-ylmethoxy)phenyl) furan-3(2H)-one]",≤ 50
2,"CC1(C)OC(c2ccc(F)cc2)=C(c2ccc(OCc3ccc4ccccc4n3)cc2)C1=O [Example 153, 5-(4-fluorophenyl)-2,2-dimethyl-4-(4-(quinolin-2-ylmethoxy)phenyl)furan-3(2H)-one]",≤ 50
3,"CC1(C)OC(c2ccc(C(F)(F)F)cc2)=C(c2ccc(OCc3ccc4ccccc4n3)cc2)C1=O [Example 154, 2,2-dimethyl-4-(4-(quinolin-2-ylmethoxy)phenyl)-5-(4-(trifluoromethyl)phenyl)furan-3(2H)-one]",≤ 50
4,"CC1(C)OC(c2ccc(OC(F)(F)F)cc2)=C(c2ccc(OCc3ccc4ccccc4n3)cc2)C1=O [Example 155, 2,2-dimethyl-4-(4-(quinolin-2-ylmethoxy)phenyl)-5-(4-(trifluoromethoxy)phenyl)furan-3(2H)-one]",≤ 50
5,"CC1(C)OC(c2ccc(CC(F)(F)F)cc2)=C(c2ccc(OCc3ccc4ccccc4n3)cc2)C1=O [Example 156, 2,2-dimethyl-4-(4-(quinolin-2-ylmethoxy)phenyl)-5-(4-(2,2,2-trifluoroethyl)phenyl)furan-3(2H)-one]",≤ 50
6,"CCOc1ccc(C2=C(c3ccc(OCc4ccc5ccccc5n4)cc3)C(=O)C(C)(C)O2)cc1 [Example 157, 5-(4-ethoxyphenyl)-2,2-dimethyl-4-(4-(quinolin-2-ylmethoxy)phenyl)furan-3(2H)-one]",≤ 50
7,"CC(C)Oc1ccc(C2=C(c3ccc(OCc4ccc5ccccc5n4)cc3)C(=O)C(C)(C)O2)cc1 [Example 158, 5-(4-isopropoxyphenyl)-2,2-dimethyl-4-(4-(quinolin-2-ylmethoxy)phenyl)furan-3(2H)-one]",> 50
8,"CC1(C)OC(c2ccc(OC(F)F)cc2)=C(c2ccc(OCc3ccc4ccccc4n3)cc2)C1=O [Example 159, 5-(4-(difluoromethoxy)phenyl)-2,2-dimethyl-4-(4-(quinolin-2-ylmethoxy)phenyl)furan-3(2H)-one]",≤ 50
9,"CC1(C)OC(c2ccc(OCC3CC3)cc2)=C(c2ccc(OCc3ccc4ccccc4n3)cc2)C1=O [Example 161, 5-(4-(cyclopropylmethoxy)phenyl)-2,2-dimethyl-4-(4-(quinolin-2-ylmethoxy)phenyl)furan-3(2H)-one]",> 50
10,"CC1(C)OC(c2ccc(OCC(F)(F)F)cc2)=C(c2ccc(OCc3ccc4ccccc4n3)cc2)C1=O [Example 162, 2,2-dimethyl-4-(4-(quinolin-2-ylmethoxy)phenyl)-5-(4-(2,2,2-trifluoroethoxy)phenyl)furan-3(2H)-one]",≤ 50
11,"CC1(C)OC(c2ccc([N+](=O)[O-])cc2)=C(c2ccc(OCc3ccc4ccccc4n3)cc2)C1=O [Example 164, 2,2-Dimethyl-5-(4-nitrophenyl)-4-(4-(quinolin-2-ylmethoxy)phenyl) furan-3(2H)-one]",≤ 50
12,"CC1(C)OC(c2ccc3nonc3c2)=C(c2ccc(OCc3ccc4ccccc4n3)cc2)C1=O [Example 166, 5-(Benzo[c][1,2,5]oxadiazol-5-yl)-2,2-dimethyl-4-(4-(quinolin-2-ylmethoxy)phenyl)furan-3(2H)-one]",≤ 50
13,"CC1(C)OC(c2ccc3nsnc3c2)=C(c2ccc(OCc3ccc4ccccc4n3)cc2)C1=O [Example 167, 5-(Benzo[c][1,2,5]thiadiazol-5-yl)-2,2-dimethyl-4-(4-(quinolin-2-ylmethoxy)phenyl)furan-3(2H)-one]",≤ 50
14,"CC1(C)OC(c2ccc(OC(F)F)c(C#N)c2)=C(c2ccc(OCc3ccc4ccccc4n3)cc2)C1=O [Example 169, 2-(difluoromethoxy)-5-(5,5-dimethyl-4-oxo-3-(4-(quinolin-2-ylmethoxy)phenyl)-4,5-dihydrofuran-2-yl)benzonitrile]",≤ 50
15,"CC1(C)OC(c2ccc(-n3cnnn3)cc2)=C(c2ccc(OCc3ccc4ccccc4n3)cc2)C1=O [Example 170, 5-(4-(1H-tetrazol-1-yl)phenyl)-2,2-dimethyl-4-(4-(quinolin-2-ylmethoxy)phenyl)furan-3(2H)-one]",≤ 50
16,"CC1(C)OC(c2cscn2)=C(c2ccc(OCc3ccc4ccccc4n3)cc2)C1=O [Example 174, 2,2-dimethyl-4-(4-(quinolin-2-ylmethoxy)phenyl)-5-(thiazol-4-yl)furan-3(2H)-one]",≤ 50
17,"CC1(C)OC(c2ccc(OCc3ccc4ccccc4n3)cc2)=C(c2ccncc2)C1=O [Example 249, 2,2-dimethyl-4-(pyridin-4-yl)-5-(4-(quinolin-2-ylmethoxy)phenyl) furan-3(2H)-one]",≤ 50
